{"source": "paper PMC9050674", "about": "“Structure-based inhibitor design for reshaping bacterial morphology” (Communications Biology, 2022)", "tested_on": "C. jejuni (ATCC 33560)", "test": "Drug accumulation assay (LC-MS)", "description": "The accumulation assay was adapted from two different methods[42],[43]. […] The culture was grown overnight at 42 °C under the micro-aerobic condition. The cells were harvested at 6000 g for 15 min and washed with 1 × PBS, followed by resuspension in pre-warmed 1 × PBS to ~10^10 CFU/mL. The cell suspension (1.2 mL) was dispensed into a 24-well plate. Each compound to be examined was added into each well (final concentration = 100 μM). […] After incubation with shaking at 37 °C for 20 min, OD600 of each sample was measured, and the cells were harvested at 6000 g for 10 min at 4 °C. The pellets were resuspended in 250 μL of water, followed by three cycles of Freeze-Thaw with a dry ice/ethanol bath and a 37 °C-heating block in order to extract the compounds from C. jejuni. The cells were pelleted at 13,000 g for 5 min at room temperature. The supernatants (220 μL) were transferred to new tubes. The pellets were resuspended in 100 μL of methanol with vigorous vortexing for 1 min, followed by pelleting as before. The supernatants (100 μL) were combined with the solutions previously collected. The residual cell debris were removed at 20,000 g for 15 min at room temperature. The supernatants (300 μL) were dried with Genevac™ miVac Centrifugal Concentrator at room temperature for 5 h. Finally, the samples were resuspended with appropriate solvents and analyzed by LC-MS.\nThe suspension was centrifuged and the supernatant was analyzed by LC-MS. LC-MS systems consists of a Bruker impact II ultra-high resolution Qq-time-of-flight mass spectrometer using Hystar 5.0 SR1 software with a Waters Acquity UPLC H-Class system equipped with a quaternary solvent manager, a sample manager-FTN, and a photodiode array detector. The Bruker electrospray ionization source was operated in the positive ion mode, except for BMK-S301 (in the negative ion mode). […] A four-step 10-min LC gradient was as follows: 3 min at 98:2; 3 min to 85:15; 0.1 min to 98:2; 3.9 min at 98:2 for BMK-S101, -S203, and -S301. The ratio of the mobile phases (A = 0.1% formic acid in water, B = 0.1% formic acid in ACN) is given as A:B in LC gradients. […] The quantification was done by integrating the peak areas from extracted-ion chromatograms of corresponding m/z values of each compound.", "note": "Values joined by “and” are separate entries in the source; they are usually repeats but may differ in a detail not shown here. Equal values may be shown once."}
{"compound": "CC(=O)N[C@@H](Cc1ccc(S(N)(=O)=O)cc1)C(=O)N[C@H](C)C(=O)NO", "note": "[BMK-S301]", "values": [{"measurement": "accumulation fold higher than for BMK-S203", "setting": "100 μM compound", "value": 54, "unit": "fold"}, {"measurement": "accumulation fold higher than for ciprofloxacin", "setting": "100 μM compound", "value": 8, "unit": "fold"}, {"measurement": "intracellular concentration (accumulation)", "setting": "100 μM compound, 37 °C, 20 min, LC-MS, mean", "value": "16.2 ± 1.0", "unit": "nmole/10^11 CFU"}, {"measurement": "µM (concentration in LC-MS sample)", "setting": "single replicates (First, Second, Third), total volume 200 (r6-r19) or 100 (r23-r30), source data Fig. 5b", "value": "0.766 µM and 0.686 µM and 1.447 µM and 1.359 µM and 1.398 µM and 0.649 µM"}, {"measurement": "nmol/1011 CFUs", "setting": "single replicates, source data Fig. 5b", "value": "17.92 nmol/1011 CFUs and 16.41 nmol/1011 CFUs and 16.422 nmol/1011 CFUs and 15.620 nmol/1011 CFUs and 15.458 nmol/1011 CFUs and 15.07 nmol/1011 CFUs"}, {"measurement": "Total nmol", "setting": "single replicates, total volume 200 or 100, source data Fig. 5b", "value": "0.1532 nmol and 0.1372 nmol and 0.1447 nmol and 0.1359 nmol and 0.1398 nmol and 0.1298 nmol"}]}
